Test results reported in PubChem BioAssay AID330 (DTP/NCI, 2004).
“And” between values parts separate entries of the source, which are not always exact repeats. Equal entries are not always repeated. Toxic doses and inconclusive results are not listed.

System: P388 leukemia ip, CD2F1 mice, survival T/C
Test: NCI In Vivo Anticancer Drug Screen. Data for tumor model P388 Leukemia (intraperitoneal) in CD2F1 (CDF1) mice
Settings: endpoint: median survival time, higher = longer survival
How it was run: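 Mice carrying the transplanted tumor received test compound or vehicle. Survival was recorded in each group, and the value is the treated-group measurement divided by that of the vehicle-treated control group.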

[1] = dose: 12.5 mg/kg/injection, schedule: Q01DX009 (ip), vehicle: Klucel (hydroxypropylcellulose) (HPC)
[2] = dose: 50.0 mg/kg/injection, schedule: Q01DX009 (ip), vehicle: saline with Tween-80
[3] = dose: 100.0 mg/kg/injection, schedule: Q01DX009 (ip), vehicle: saline with Tween-80
[4] = dose: 200.0 mg/kg/injection, schedule: Q01DX009 (ip), vehicle: saline with Tween-80
[5] = dose: 240.0 mg/kg/injection, schedule: Q01DX005 (ip), vehicle: saline with Tween-80

For `CC1(CO)C(O)CCC2(C)C1CCC1CC3CC12CCC3(O)CO` (stereo not given), the T/C (dose: 0.78 mg/kg/injection, schedule: Q03HX024 (ip), vehicle: Klucel (hydroxypropylcellulose) (HPC)) was 106 % of control, the T/C (dose: 0.78 mg/kg/injection, schedule: Q03HX024 (oral), vehicle: Klucel (hydroxypropylcellulose) (HPC)) was 100 % of control and the T/C (dose: 1.56 mg/kg/injection, schedule: Q03HX024 (ip), vehicle: Klucel (hydroxypropylcellulose) (HPC)) was 93 % of control. The T/C (dose: 1.56 mg/kg/injection, schedule: Q03HX024 (oral), vehicle: Klucel (hydroxypropylcellulose) (HPC)) was 99 % of control, the T/C (dose: 3.12 mg/kg/injection, schedule: Q03HX024 (ip), vehicle: Klucel (hydroxypropylcellulose) (HPC)) was 100 % of control and the T/C (dose: 3.12 mg/kg/injection, schedule: Q03HX024 (oral), vehicle: Klucel (hydroxypropylcellulose) (HPC)) was 102 % of control. The T/C (dose: 6.25 mg/kg/injection, schedule: Q03HX024 (ip), vehicle: Klucel (hydroxypropylcellulose) (HPC)) was 102 % of control, the T/C (dose: 6.25 mg/kg/injection, schedule: Q03HX024 (oral), vehicle: Klucel (hydroxypropylcellulose) (HPC)) was 98 % of control and the T/C [1] was 109 % of control and 113 % of control. The T/C (dose: 12.5 mg/kg/injection, schedule: Q03HX024 (ip), vehicle: Klucel (hydroxypropylcellulose) (HPC)) was 106 % of control, the T/C (dose: 12.5 mg/kg/injection, schedule: Q03HX024 (oral), vehicle: Klucel (hydroxypropylcellulose) (HPC)) was 100 % of control and the T/C (dose: 25.0 mg/kg/injection, schedule: Q01DX009 (ip), vehicle: Klucel (hydroxypropylcellulose) (HPC)) was 114 % of control and 91 % of control. For the same compound, the T/C (dose: 25.0 mg/kg/injection, schedule: Q01DX009 (ip), vehicle: saline with Tween-80) was 112 % of control, the T/C (dose: 25.0 mg/kg/injection, schedule: Q03HX024 (ip), vehicle: Klucel (hydroxypropylcellulose) (HPC)) was 119 % of control and the T/C (dose: 25.0 mg/kg/injection, schedule: Q03HX024 (oral), vehicle: Klucel (hydroxypropylcellulose) (HPC)) was 100 % of control. The T/C (dose: 25.0 mg/kg/injection, schedule: Q04DX003 (ip), vehicle: Klucel (hydroxypropylcellulose) (HPC)) was 100 % of control, the T/C (dose: 30.0 mg/kg/injection, schedule: Q01DX005 (iv), vehicle: saline with Tween-80) was 109 % of control and the T/C [2] was 115 % of control. For the same compound, the T/C (dose: 50.0 mg/kg/injection, schedule: Q03HX024 (ip), vehicle: Klucel (hydroxypropylcellulose) (HPC)) was 120 % of control, the T/C (dose: 50.0 mg/kg/injection, schedule: Q03HX024 (oral), vehicle: Klucel (hydroxypropylcellulose) (HPC)) was 101 % of control and the T/C (dose: 50.0 mg/kg/injection, schedule: Q04DX002 (ip), vehicle: Klucel (hydroxypropylcellulose) (HPC)) was 97 % of control. For the same compound, the T/C (dose: 50.0 mg/kg/injection, schedule: Q04DX003 (ip), vehicle: Klucel (hydroxypropylcellulose) (HPC)) was 103 % of control, the T/C (dose: 60.0 mg/kg/injection, schedule: Q01DX005 (iv), vehicle: saline with Tween-80) was 107 % of control and the T/C (dose: 60.0 mg/kg/injection, schedule: Q01DX005 (oral), vehicle: saline with Tween-80) was 107 % of control. For the same compound, the T/C (dose: 75.0 mg/kg/injection, schedule: Q04DX002 (ip), vehicle: Klucel (hydroxypropylcellulose) (HPC)) was 105 % of control, the T/C [3] was 121 % of control and the T/C (dose: 100.0 mg/kg/injection, schedule: Q03HX024 (oral), vehicle: Klucel (hydroxypropylcellulose) (HPC)) was 111 % of control. The T/C (dose: 100.0 mg/kg/injection, schedule: Q04DX002 (ip), vehicle: Klucel (hydroxypropylcellulose) (HPC)) was 100 % of control, the T/C (dose: 100.0 mg/kg/injection, schedule: Q04DX003 (ip), vehicle: Klucel (hydroxypropylcellulose) (HPC)) was 114 % of control and the T/C (dose: 120.0 mg/kg/injection, schedule: Q01DX005 (iv), vehicle: saline with Tween-80) was 100 % of control. For the same compound, the T/C (dose: 120.0 mg/kg/injection, schedule: Q01DX005 (oral), vehicle: saline with Tween-80) was 103 % of control, the T/C (dose: 150.0 mg/kg/injection, schedule: Q04DX002 (ip), vehicle: Klucel (hydroxypropylcellulose) (HPC)) was 111 % of control and the T/C (dose: 200.0 mg/kg/injection, schedule: Q01DX009 (ip), vehicle: Klucel (hydroxypropylcellulose) (HPC)) was 92 % of control and 96 % of control. For the same compound, the T/C [4] was 105 % of control, the T/C (dose: 200.0 mg/kg/injection, schedule: Q01DX009 (oral), vehicle: saline with Tween-80) was 100 % of control and the T/C (dose: 200.0 mg/kg/injection, schedule: Q04DX002 (ip), vehicle: Klucel (hydroxypropylcellulose) (HPC)) was 105 % of control. For the same compound, the T/C (dose: 200.0 mg/kg/injection, schedule: Q04DX003 (ip), vehicle: Klucel (hydroxypropylcellulose) (HPC)) was 119 % of control, the T/C [5] was 109 % of control and the T/C (dose: 240.0 mg/kg/injection, schedule: Q01DX005 (iv), vehicle: saline with Tween-80) was 106 % of control. For the same compound, the T/C (dose: 240.0 mg/kg/injection, schedule: Q01DX005 (oral), vehicle: saline with Tween-80) was 102 % of control, the T/C (dose: 300.0 mg/kg/injection, schedule: Q04DX002 (ip), vehicle: Klucel (hydroxypropylcellulose) (HPC)) was 115 % of control and the T/C (dose: 400.0 mg/kg/injection, schedule: Q01DX009 (oral), vehicle: saline with Tween-80) was 103 % of control. For the same compound, the T/C (dose: 400.0 mg/kg/injection, schedule: Q04DX002 (ip), vehicle: Klucel (hydroxypropylcellulose) (HPC)) was 117 % of control, the T/C (dose: 480.0 mg/kg/injection, schedule: Q01DX005 (oral), vehicle: saline with Tween-80) was 107 % of control and the T/C (dose: 600.0 mg/kg/injection, schedule: Q04DX002 (ip), vehicle: Klucel (hydroxypropylcellulose) (HPC)) was 117 % of control. For the same compound, the T/C (dose: 800.0 mg/kg/injection, schedule: Q01DX009 (oral), vehicle: saline with Tween-80) was 103 % of control, the T/C (dose: 800.0 mg/kg/injection, schedule: Q04DX002 (ip), vehicle: Klucel (hydroxypropylcellulose) (HPC)) was 108 % of control and the T/C (dose: 800.0 mg/kg/injection, schedule: Q04DX003 (ip), vehicle: Klucel (hydroxypropylcellulose) (HPC)) was 102 % of control. For the same compound, the T/C (dose: 1200.0 mg/kg/injection, schedule: Q04DX002 (ip), vehicle: Klucel (hydroxypropylcellulose) (HPC)) was 118 % of control and the T/C (dose: 1600.0 mg/kg/injection, schedule: Q01DX009 (oral), vehicle: saline with Tween-80) was 88 % of control.

For `C=C1C(=O)OC2C1CCC1(C)CCCC(=C)C21` (stereo not given), the T/C (dose: 2.5 mg/kg/injection, schedule: Q01DX009 (ip), vehicle: Klucel (hydroxypropylcellulose) (HPC)) was 93 % of control, the T/C (dose: 5.0 mg/kg/injection, schedule: Q01DX009 (ip), vehicle: Klucel (hydroxypropylcellulose) (HPC)) was 96 % of control and the T/C (dose: 10.0 mg/kg/injection, schedule: Q01DX009 (ip), vehicle: Klucel (hydroxypropylcellulose) (HPC)) was 92 % of control. For the same compound, the T/C (dose: 20.0 mg/kg/injection, schedule: Q01DX009 (ip), vehicle: Klucel (hydroxypropylcellulose) (HPC)) was 96 % of control.

In the case of `COc1cc(C(=O)CC(=O)CCC(=O)Nc2ccc(C)c(C)c2)ccc1O`, the T/C (dose: 60.0 mg/kg/injection, schedule: Q01DX005 (ip), vehicle: saline with Tween-80) is reported as 102 % of control, the T/C (dose: 120.0 mg/kg/injection, schedule: Q01DX005 (ip), vehicle: saline with Tween-80) is reported as 104 % of control and the T/C [5] is reported as 102 % of control.

For `Nc1ccc(-c2ccc(N)c(Cl)c2)cc1Cl`, the T/C [2] was 104 % of control, the T/C [3] was 114 % of control and the T/C [4] was 112 % of control.

With `C#CCSc1nnnn1-c1ccc(Br)c(C)c1` the T/C (dose: 50.0 mg/kg/injection, schedule: Q01DX005 (ip), vehicle: Klucel (hydroxypropylcellulose) (HPC)) was 101 % of control, the T/C (dose: 100.0 mg/kg/injection, schedule: Q01DX005 (ip), vehicle: Klucel (hydroxypropylcellulose) (HPC)) was 92 % of control and the T/C (dose: 200.0 mg/kg/injection, schedule: Q01DX005 (ip), vehicle: Klucel (hydroxypropylcellulose) (HPC)) was 101 % of control.

With `Cc1cc(N(CCOS(C)(=O)=O)CCOS(C)(=O)=O)ccc1C=O` the T/C (dose: 3.12 mg/kg/injection, schedule: Q01DX009 (ip), vehicle: Klucel (hydroxypropylcellulose) (HPC)) was 150 % of control and 176 % of control, the T/C (dose: 6.25 mg/kg/injection, schedule: Q01DX009 (ip), vehicle: Klucel (hydroxypropylcellulose) (HPC)) was 174 % of control and 196 % of control and the T/C [1] was 110 % of control and 213 % of control and 217 % of control.

In the case of `CCNC1=C(C(=O)c2ccccc2)CCC1`, the T/C (dose: 50.0 mg/kg/injection, schedule: Q01DX009 (ip), vehicle: saline) is reported as 109 % of control, the T/C (dose: 100.0 mg/kg/injection, schedule: Q01DX009 (ip), vehicle: saline) is reported as 104 % of control and the T/C (dose: 200.0 mg/kg/injection, schedule: Q01DX009 (ip), vehicle: saline) is reported as 109 % of control.

In the case of `NS(=O)(=O)c1ccc(N=NC2C(=O)N(c3ccccc3)C(=S)N(c3ccccc3)C2=O)cc1`, the T/C (dose: 60.0 mg/kg/injection, schedule: Q01DX005 (ip), vehicle: Klucel (hydroxypropylcellulose) (HPC)) is reported as 100 % of control, the T/C (dose: 60.0 mg/kg/injection, schedule: Q01DX005 (ip), vehicle: saline) is reported as 106 % of control and the T/C (dose: 120.0 mg/kg/injection, schedule: Q01DX005 (ip), vehicle: Klucel (hydroxypropylcellulose) (HPC)) is reported as 100 % of control. For the same compound, the T/C (dose: 120.0 mg/kg/injection, schedule: Q01DX005 (ip), vehicle: saline) was 95 % of control, the T/C (dose: 240.0 mg/kg/injection, schedule: Q01DX005 (ip), vehicle: Klucel (hydroxypropylcellulose) (HPC)) was 91 % of control and the T/C (dose: 240.0 mg/kg/injection, schedule: Q01DX005 (ip), vehicle: saline) was 92 % of control.
